Results: patent publication US20040023990A1, “Use of pyrazolo[4,3-d]pyrimidines” (priority 2000, published 2004)

Compound CCCc1nn(C)c2c(NCc3ccc(OC)c(Cl)c3)nc(CCC(=O)O)nc12 [Example 2, 3-[7-(3-chloro4-methoxybenzylamino)-1-methyl-3-propyl-1H-pyrazolo-[4,3-d]pyrimidin-5-yl]propionic acid] has a melting point of 178 °C.
